# Values joined by “and” are separate entries in the source; they are usually repeats but may differ in a detail not shown here. Identical values can stand only once.
# Tests used:
# Assay type in all cases: in vivo, human
# Phase 2a: body weight = conditions: for Weight, Absolute Change From Day 1, Difference in LS Mean Change (vs Placebo) / Weight, Absolute Change From Day 1, LS Mean Change / Weight, Percent Change from Day 1, Difference in LS Mean Change (vs Placebo) / Weight, Percent Change from Day 1, LS Mean Change: ANCOVA; for Weight, Absolute Change From Day 1, Difference in LS Mean Change (vs Placebo) / Weight, Absolute Change From Day 1, LS Mean Change / Weight, Percent Change from Day 1, Difference in LS Mean Change (vs Placebo) / Weight, Percent Change from Day 1, LS Mean Change / Weight, Absolute Change From Day 1, Mean / Weight, Absolute Change From Day 1, Median / Weight, Percent Change from Day 1, Mean / Weight, Percent Change from Day 1, Median / Weight, End of Dosing (Day 33), Mean / Weight, End of Dosing (Day 33), Median: ITT
# Protocol: (§1) Cotadutide was titrated from 50 μg up to 300 μg and administered once daily by subcutaneous (SC) injection over 32 days.
# (§2) Cotadutide was administered at 50 μg once daily for 4 days, followed by 100 μg daily for 7 days, 200 μg daily for 7 days, and 300 μg daily for 14 days (n=20). Placebo was administered one daily for 32 days (n=20). Cotadutide and placebo were administered in the morning. Dosing commenced following predose baseline vital signs, blood tests (including HbA1c), an electrocardiogram (ECG), body weight measurement, and bioimpedance spectroscopy (BIS). Subjects then returned for daily dosing or remained overnight locally until Day 5, and thereafter, had visits at weekly intervals until a maintenance dose of 300 μg was established. Thus, Cotadutide or placebo was administered at the study site by study personal for the first four doses and on site on Days 5, 12, 19, and 32. At all other times, subjects preformed dosing at home.
# Weight was measured after the subject had toileted and removed bulky clothing, including shoes. Whenever possible, the same calibrated scale was used for each measurement for any given subject.
# [1] = test system: subjects with T2DM and renal impairment; experiment: Phase 2a: HbA1c blood test; conditions: ITT; for HbA1c LS Mean Change / HbA1c Change from Baseline, Mean / HbA1c Difference in LS Mean Change (vs Placebo): Day 1 to Day 32; for HbA1c LS Mean Change: ANCOVA
# Protocol: as §1, §2
# Blood samples were collected to evaluate blood glucose (fasting) and HbA1c levels.
# [2] = test system: subjects with T2DM and renal impairment; experiment: Phase 2a: bioimpedance spectroscopy (fluid status); conditions: baseline (Day 1) to end of dosing
# Protocol: Assessment of body composition, including but not limited to extracellular and intracellular volume and total body water, were conducted with bioimpedance spectroscopy using the SFB7 device produced by ImpediMed. Bioimpedance spectroscopy measures were not conducted in any subject with a pacemaker or implantable electronic device, e.g., an implantable cardiac defibrillator, as described in the manufacturer's instructions.
# Bioimpedance spectroscopy was performed prior to dosing on Visit 4 (Day 1; Baseline) and following dosing on Visits 6 (Day 5), 7 (Day 12), 8 (Day 19), and 9 (Day 32). Subjects were to void their bladder and abstain from exercising 2 hours prior to the assessment. The subjects laid in a supine position 5 minutes before the measurement, while not touching any metal surfaces. The subjects' limbs were not crossed, the legs were completely separated, and the arms were not to touch the torso. For subjects who could not effectively separate their inner thighs, insulating material (e.g., a towel) may have been between the legs. The bioimpedance spectroscopy was set to make three repeat measurements. The subject was to remain still and relaxed during the measurement. The points of contact for the electrodes were marked on the subject's skin and the same positions used at all occasions. […]
# [3] = test system: subjects with T2DM and renal impairment; experiment: Phase 2a: anti-drug antibody (ADA) screening assay
# Protocol: Blood samples were collected to evaluate anti-drug antibody (ADA) response to Cotadutide. A screening assay in the form of a traditional ligand-binding “birding” assay using electrochemiluminescence was used to determine ADA-positive samples.
# Development of ADA and titres (in any subjects testing positive) were assessed (As-treated population). No subjects tested positive for ADA at baseline. A total of 2 subjects (4.9%) were ADA positive post-baseline (both subjects [9.5%] in the Cotadutide dose group). […] 1 subject was ADA positive at Day 12 (titer ≤5) but negative at subsequent visits. One subject was ADA positive at Day 32 (titer=2560) and remained positive at the Day 60 follow-up visit (titer=160); at 6 months after their last visit; the antibody titer was 10, and therefore, no additional follow-up was deemed necessary for this subject.
# [4] = Phase 2a: pharmacokinetics in plasma (LC/MS-MS)
# Protocol: Blood was collected to evaluate to pharmacokinetics (PK) of Cotadutide in plasma. The PK was measured using a validated liquid chromatography-tandem mass spectrometry (LC/MS-MS) method.
# Pharmacokinetic characterization of Cotadutide at 300 μg was obtained using full PK profiles collected during the last day of dosing at 300 μg (Day 32). Additional Ctrough concentrations were collected through the study duration to check exposure.
# [5] = test system: subjects with T2DM and renal impairment; experiment: Phase 2a: adverse events
# Protocol: Only serious adverse events (SAEs) associated with protocol-related procedures were collected form time of signature of informed consent until the stat of the treatment period. All adverse events (AEs) were collected during the treatment period and follow-up period (Day 60±5). AEs and SAEs were graded by severity and relationship to Cotadutide or placebo, and SAEs were assessed for relationship to protocol procedures.
# [6] = Day 1 to Day 33, Insulin Dose < 20 U/day subgroup
# [7] = Day 1 to Day 33, Insulin Dose ≥ 20 U/day subgroup
# [8] = Insulin Dose < 20 U/day subgroup
# [9] = Insulin Dose ≥ 20 U/day subgroup
smiles,measurement,setting,value
CCCCCCCCCCCCCCCC(=O)N[C@@H](CCC(=O)NCCCC[C@H](NC(=O)[C@H](CC(=O)O)NC(=O)[C@H](CO)NC(=O)[C@@H](NC(=O)[C@H](Cc1ccccc1)NC(=O)[C@@H](NC(=O)CNC(=O)[C@H](CCC(N)=O)NC(=O)[C@H](CO)NC(=O)[C@@H](N)Cc1c[nH]cn1)[C@@H](C)O)[C@@H](C)O)C(=O)N[C@@H](CO)C(=O)N[C@@H](CCC(=O)O)C(=O)N[C@@H](Cc1ccc(O)cc1)C(=O)N[C@@H](CC(C)C)C(=O)N[C@@H](CC(=O)O)C(=O)N[C@@H](CO)C(=O)N[C@@H](CCC(=O)O)C(=O)N[C@@H](CCCNC(=N)N)C(=O)N[C@@H](C)C(=O)N[C@@H](CCCNC(=N)N)C(=O)N[C@@H](CC(=O)O)C(=O)N[C@@H](Cc1ccccc1)C(=O)N[C@H](C(=O)N[C@@H](C)C(=O)N[C@@H](Cc1c[nH]c2ccccc12)C(=O)N[C@@H](CC(C)C)C(=O)N[C@@H](CCC(=O)O)C(=O)N[C@@H](C)C(=O)NCC(=O)NCC(=O)O)C(C)C)C(=O)O [Cotadutide],"weight loss, percentage",Phase 2a: body weight; <20 U/day Insulin group,−5.38%
same,"Weight, Absolute Change From Day 1, Difference in LS Mean Change (vs Placebo)",Phase 2a: body weight; [6],-3.99 kg
same,"Weight, Absolute Change From Day 1, LS Mean Change",Phase 2a: body weight; [6],-4.72 kg
same,"Weight, Percent Change from Day 1, Difference in LS Mean Change (vs Placebo)",Phase 2a: body weight; [6],−4.74%
same,"Weight, Percent Change from Day 1, LS Mean Change",Phase 2a: body weight; [6],−5.38%
same,"Weight, Absolute Change From Day 1, Mean",Phase 2a: body weight; [6],-4.74 kg
same,"Weight, Absolute Change From Day 1, Median",Phase 2a: body weight; [6],-4.50 kg
same,"Weight, Percent Change from Day 1, Mean",Phase 2a: body weight; [6],−5.26%
same,"Weight, Percent Change from Day 1, Median",Phase 2a: body weight; [6],−4.53%
same,"Weight, Absolute Change From Day 1, Difference in LS Mean Change (vs Placebo)",Phase 2a: body weight; [7],-2.79 kg
same,"Weight, Absolute Change From Day 1, LS Mean Change",Phase 2a: body weight; [7],-2.66 kg
same,"Weight, Percent Change from Day 1, Difference in LS Mean Change (vs Placebo)",Phase 2a: body weight; [7],−2.66%
same,"Weight, Percent Change from Day 1, LS Mean Change",Phase 2a: body weight; [7],−2.69%
same,"Weight, Absolute Change From Day 1, Mean",Phase 2a: body weight; [7],-2.60 kg
same,"Weight, Absolute Change From Day 1, Median",Phase 2a: body weight; [7],-1.90 kg
same,"Weight, Percent Change from Day 1, Mean",Phase 2a: body weight; [7],−2.61%
same,"Weight, Percent Change from Day 1, Median",Phase 2a: body weight; [7],−2.00%
same,"Weight, Absolute Change From Day 1, Difference in LS Mean Change (vs Placebo)","Phase 2a: body weight; Day 1 to Day 33, Total",-3.28 kg
same,"Weight, Absolute Change From Day 1, LS Mean Change","Phase 2a: body weight; Day 1 to Day 33, Total",-3.41 kg
same,"Weight, Percent Change from Day 1, Difference in LS Mean Change (vs Placebo)","Phase 2a: body weight; Day 1 to Day 33, Total",−3.47%
same,"Weight, Percent Change from Day 1, LS Mean Change","Phase 2a: body weight; Day 1 to Day 33, Total",−3.69%
same,"Weight, Absolute Change From Day 1, Mean","Phase 2a: body weight; Day 1 to Day 33, Total",-3.39 kg
same,"Weight, Absolute Change From Day 1, Median","Phase 2a: body weight; Day 1 to Day 33, Total",-3.60 kg
same,"Weight, Percent Change from Day 1, Mean","Phase 2a: body weight; Day 1 to Day 33, Total",−3.59%
same,"Weight, Percent Change from Day 1, Median","Phase 2a: body weight; Day 1 to Day 33, Total",−3.68%
same,LS mean reduction in absolute body weight,"Phase 2a: body weight; Day 1 to Day 33, all subjects",-3.41 kg
same,LS mean reduction in percentage body weight,"Phase 2a: body weight; Day 1 to Day 33, all subjects",−3.69% and −3.7%
same,"Weight, End of Dosing (Day 33), Mean",Phase 2a: body weight; [8],91.27 kg
same,"Weight, End of Dosing (Day 33), Median",Phase 2a: body weight; [8],88.70 kg
same,"Weight, End of Dosing (Day 33), Mean",Phase 2a: body weight; [9],94.13 kg
same,"Weight, End of Dosing (Day 33), Median",Phase 2a: body weight; [9],96.15 kg
same,"Weight, End of Dosing (Day 33), Mean",Phase 2a: body weight; Total,93.08 kg
same,"Weight, End of Dosing (Day 33), Median",Phase 2a: body weight; Total,94.10 kg
same,"weight loss, percentage",Phase 2a: body weight; ≥20 U/day Insulin group,−2.69%
same,HbA1c LS Mean Change,[1]; Insulin Dose < 20 U/day,−0.66%
same,HbA1c LS Mean Change,[1]; Insulin Dose ≥ 20 U/day,−0.57%
same,HbA1c LS Mean Change,[1]; Total,−0.65% and −0.7%
same,HbA1c LS Mean Change,"[1]; Total, listed as MEDI0382",−0.65%
same,"HbA1c Change from Baseline, Mean",[1]; Insulin Dose < 20 U/day,−0.829%
same,HbA1c Difference in LS Mean Change (vs Placebo),[1]; Insulin Dose < 20 U/day,−0.59%
same,HbA1c Difference in LS Mean Change (vs Placebo),[1]; Insulin Dose ≥ 20 U/day,−0.55%
same,"HbA1c Change from Baseline, Mean",[1]; Total,−0.653%
same,HbA1c Difference in LS Mean Change (vs Placebo),[1]; Total,−0.66%
same,"Hemoglobin A1C, Day 32, Mean",[1]; Insulin Dose < 20 U/day,6.943%
same,"Hemoglobin A1C, Day 32, Median",[1]; Insulin Dose < 20 U/day,6.900%
same,"Hemoglobin A1C, Day 32, Mean",[1]; Insulin Dose ≥ 20 U/day,7.392%
same,"Hemoglobin A1C, Day 32, Median",[1]; Insulin Dose ≥ 20 U/day,7.300%
same,"Hemoglobin A1C, Day 32, Mean",[1]; Total,7.226%
same,"Hemoglobin A1C, Day 32, Median",[1]; Total,7.200%
same,"changes in total body water volume, intracellular fluid volume, or extracellular fluid volume vs placebo",[2],no clinically meaningful differences
same,"ADA titer, one subject",[3]; 6 months after last visit,10
same,"subjects ADA positive post-baseline, number",[3]; As-treated population,2 subjects
same,"subjects ADA positive post-baseline, percentage of dose group",[3]; As-treated population,9.5%
same,"ADA titer, one subject","[3]; Day 12, negative at subsequent visits",≤ 5
same,"ADA titer, one subject",[3]; Day 32,2560
same,"ADA titer, one subject",[3]; Day 60 follow-up visit,160
same,treatment-boosted ADA,[3]; baseline titer boosted 4-fold or higher,No subjects
same,AUC,"[4]; human, plasma, 300 ug, Day 32, 300 μg SC, geometric mean, N = 16",286 ng·h/mL
same,Cmax,"[4]; human, plasma, 300 ug, Day 32, 300 μg SC, geometric mean, N = 18",16.9 ng/mL
same,Tmax,"[4]; human, plasma, 300 ug, Day 32, 300 μg SC, median, N = 18",5.6 h
same,PK linearity for Ctrough,[4]; repeat daily SC doses 50 to 300 μg,linear PK
same,deaths,"[5]; diabetic ketoacidosis and cholecystitis, deemed related",one death
same,Serious adverse events (SAEs) vs placebo,[5]; in vivo,balanced
same,TEAE that led to withdrawal,[5]; in vivo,two subjects
same,incidence of overall TEAEs and product-related TEAEs vs placebo,[5]; in vivo,higher
same,most frequently reported TEAEs (preferred term),[5]; in vivo,"nausea, vomiting, diarrhea, and dyspepsia"
same,"nausea, frequency",[5]; in vivo,33%
same,"treatment-related AEs, frequency",[5]; in vivo,71%
same,"vomiting, frequency",[5]; in vivo,24%

# Reference: US20210213104A1, “GLUCAGON AND GLP-1 CO-AGONISTS FOR THE TREATMENT OF CHRONIC KIDNEY DISEASE AND DIABETIC KIDNEY DISEASE IN TYPE 2 DIABETES” (MEDIMMUNE LIMITED, priority 2020, published 2021)
